In ChEMBL document CHEMBL5465560, “Selectivity Literature for EUbOPEN Chemogenomic Library” (2024):

How the values were obtained:
[1] = biological target: Calcium/calmodulin-dependent protein kinase type II subunit gamma (Homo sapiens) (UniProt Q13555); test: Selectivity interaction (KinomeScan (DiscoverX)) EUB0000092b CAMK2G; conditions: at 10 µM
[2] = biological target: T1, Serine/threonine-protein kinase Sgk1 (Homo sapiens) (UniProt O00141); test: Selectivity interaction (ProQinase) EUB0000171b SGK1
T1 sequence (whole entry): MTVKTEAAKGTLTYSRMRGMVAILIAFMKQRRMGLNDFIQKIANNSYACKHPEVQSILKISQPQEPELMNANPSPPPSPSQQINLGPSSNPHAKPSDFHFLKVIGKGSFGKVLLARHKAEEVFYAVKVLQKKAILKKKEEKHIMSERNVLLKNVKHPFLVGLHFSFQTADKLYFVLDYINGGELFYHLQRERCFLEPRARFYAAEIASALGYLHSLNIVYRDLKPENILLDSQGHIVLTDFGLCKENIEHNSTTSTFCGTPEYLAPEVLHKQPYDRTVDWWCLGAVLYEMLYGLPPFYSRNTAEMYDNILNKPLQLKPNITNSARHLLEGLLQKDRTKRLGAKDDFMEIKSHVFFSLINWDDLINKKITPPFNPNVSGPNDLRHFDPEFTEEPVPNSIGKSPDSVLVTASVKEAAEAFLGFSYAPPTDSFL

[3] = biological target: T2, NUAK family SNF1-like kinase 1 (Homo sapiens) (UniProt O60285); test: Selectivity interaction (ProQinase) EUB0000171b NUAK1
T2 sequence (whole entry): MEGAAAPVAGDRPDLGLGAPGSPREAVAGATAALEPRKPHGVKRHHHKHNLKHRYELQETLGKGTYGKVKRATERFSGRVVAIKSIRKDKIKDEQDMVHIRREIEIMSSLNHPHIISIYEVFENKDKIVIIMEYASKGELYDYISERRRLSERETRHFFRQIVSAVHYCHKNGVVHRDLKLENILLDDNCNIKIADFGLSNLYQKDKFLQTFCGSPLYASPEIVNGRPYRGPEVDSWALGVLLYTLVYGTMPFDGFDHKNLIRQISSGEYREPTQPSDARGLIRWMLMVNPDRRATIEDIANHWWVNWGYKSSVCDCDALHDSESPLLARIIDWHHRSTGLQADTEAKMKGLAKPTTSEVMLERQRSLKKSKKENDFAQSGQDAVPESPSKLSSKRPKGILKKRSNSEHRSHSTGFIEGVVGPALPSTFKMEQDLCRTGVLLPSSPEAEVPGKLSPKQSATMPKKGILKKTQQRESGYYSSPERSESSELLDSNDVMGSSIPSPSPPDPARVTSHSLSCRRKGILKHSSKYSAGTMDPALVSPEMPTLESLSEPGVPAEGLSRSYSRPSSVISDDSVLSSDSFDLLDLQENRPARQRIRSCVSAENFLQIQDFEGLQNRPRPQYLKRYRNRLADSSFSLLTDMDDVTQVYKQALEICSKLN

[4] = biological target: T3, Myotonin-protein kinase (Homo sapiens) (UniProt Q09013); conditions: at 10 µM
T3 sequence (whole entry): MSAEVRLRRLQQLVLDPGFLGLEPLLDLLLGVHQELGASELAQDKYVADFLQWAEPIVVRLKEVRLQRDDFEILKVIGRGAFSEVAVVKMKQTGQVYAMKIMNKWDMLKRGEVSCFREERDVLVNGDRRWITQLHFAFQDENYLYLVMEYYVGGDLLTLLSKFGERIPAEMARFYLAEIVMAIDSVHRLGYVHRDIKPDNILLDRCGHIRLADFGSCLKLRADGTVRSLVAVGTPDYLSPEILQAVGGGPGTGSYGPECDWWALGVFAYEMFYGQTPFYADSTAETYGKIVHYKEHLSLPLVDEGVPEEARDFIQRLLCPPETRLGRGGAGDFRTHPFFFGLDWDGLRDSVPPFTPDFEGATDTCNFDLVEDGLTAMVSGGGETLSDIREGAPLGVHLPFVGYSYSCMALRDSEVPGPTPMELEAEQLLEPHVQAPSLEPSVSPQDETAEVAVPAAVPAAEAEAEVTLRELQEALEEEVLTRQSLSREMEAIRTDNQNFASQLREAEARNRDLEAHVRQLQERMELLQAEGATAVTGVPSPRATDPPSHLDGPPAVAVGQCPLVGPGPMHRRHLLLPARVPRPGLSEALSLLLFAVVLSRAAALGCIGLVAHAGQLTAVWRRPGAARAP

[5] = biological target: Mitogen-activated protein kinase 3 (Homo sapiens, UniProt P27361); test: Selectivity interaction (Kinase panel (Z-LYTE Assay)) EUB0001632a MAPK3; conditions: at 10 µM
[6] = biological target: Phosphatidylinositol 3-kinase catalytic subunit type 3 (Homo sapiens, UniProt Q8NEB9); test: Selectivity interaction (Adapta Assay) EUB0001632a PIK3C3; conditions: at 10 µM
[7] = biological target: Cyclin-dependent kinase 2 (Homo sapiens, UniProt P24941); test: Selectivity interaction (ActivX KiNativ screen (kinase selectivity in THP-1 cell lysates)) EUB0000639a CDK2; format: subcellular; conditions: lysate, at 5 µM
[8] = biological target: T4, Protein kinase C iota type (Homo sapiens) (UniProt P41743); test: Selectivity interaction (KinomeScan (DiscoverX)) EUB0000607a PRKCI; conditions: at 10 µM
T4 sequence (whole entry): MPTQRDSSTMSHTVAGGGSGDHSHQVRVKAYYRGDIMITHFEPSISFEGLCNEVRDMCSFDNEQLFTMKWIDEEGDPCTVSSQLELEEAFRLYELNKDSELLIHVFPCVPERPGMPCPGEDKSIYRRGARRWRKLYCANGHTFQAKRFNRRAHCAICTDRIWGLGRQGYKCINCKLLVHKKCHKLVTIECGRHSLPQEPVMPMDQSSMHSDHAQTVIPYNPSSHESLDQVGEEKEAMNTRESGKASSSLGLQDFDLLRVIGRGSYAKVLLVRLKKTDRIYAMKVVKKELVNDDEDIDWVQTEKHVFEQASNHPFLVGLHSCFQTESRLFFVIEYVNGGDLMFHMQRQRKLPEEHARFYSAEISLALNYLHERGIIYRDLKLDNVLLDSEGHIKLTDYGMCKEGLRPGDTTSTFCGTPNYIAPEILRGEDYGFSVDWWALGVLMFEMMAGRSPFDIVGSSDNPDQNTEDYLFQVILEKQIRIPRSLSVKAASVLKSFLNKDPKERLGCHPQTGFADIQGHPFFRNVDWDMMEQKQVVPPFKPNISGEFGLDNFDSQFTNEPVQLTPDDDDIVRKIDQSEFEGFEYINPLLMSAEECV

SRSF protein kinase 1 = SRSF protein kinase 1 (Homo sapiens, UniProt Q96SB4); test: Selectivity interaction (SelectScreen profiling (Invitrogen)) EUB0000607a SRPK1; conditions: at 2 µM
[9] = biological target: Leukotriene B4 receptor 1 (Homo sapiens) (UniProt Q15722); test: Selectivity interaction (Eurofins CEREP Diversity Profile (receptors and ion channels)) EUB0000279b LTB4R; conditions: at 10 µM
[10] = biological target: Dual specificity mitogen-activated protein kinase kinase 2 (Homo sapiens) (UniProt P36507); test: Selectivity interaction (Ambit KINOMEscan and KiNATiv profiling in Jurkat cells) EUB0000090b MAP2K2; format: cell-based; conditions: at 1 µM
Dual specificity mitogen-activated protein kinase kinase 2 (Homo sapiens), sequence (P36507 whole entry): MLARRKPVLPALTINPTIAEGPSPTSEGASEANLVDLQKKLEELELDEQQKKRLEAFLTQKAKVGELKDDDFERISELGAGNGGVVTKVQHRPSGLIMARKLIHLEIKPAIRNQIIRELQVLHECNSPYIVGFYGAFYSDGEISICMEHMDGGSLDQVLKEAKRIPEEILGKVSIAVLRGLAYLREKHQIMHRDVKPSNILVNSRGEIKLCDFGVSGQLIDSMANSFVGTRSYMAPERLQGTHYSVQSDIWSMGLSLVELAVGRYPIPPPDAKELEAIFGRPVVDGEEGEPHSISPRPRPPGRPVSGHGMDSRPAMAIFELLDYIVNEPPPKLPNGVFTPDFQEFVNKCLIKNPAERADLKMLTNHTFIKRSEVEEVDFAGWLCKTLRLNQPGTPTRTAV

Calcium/calmodulin-dependent protein kinase type II subunit gamma (Homo sapiens), sequence (Q13555 whole entry): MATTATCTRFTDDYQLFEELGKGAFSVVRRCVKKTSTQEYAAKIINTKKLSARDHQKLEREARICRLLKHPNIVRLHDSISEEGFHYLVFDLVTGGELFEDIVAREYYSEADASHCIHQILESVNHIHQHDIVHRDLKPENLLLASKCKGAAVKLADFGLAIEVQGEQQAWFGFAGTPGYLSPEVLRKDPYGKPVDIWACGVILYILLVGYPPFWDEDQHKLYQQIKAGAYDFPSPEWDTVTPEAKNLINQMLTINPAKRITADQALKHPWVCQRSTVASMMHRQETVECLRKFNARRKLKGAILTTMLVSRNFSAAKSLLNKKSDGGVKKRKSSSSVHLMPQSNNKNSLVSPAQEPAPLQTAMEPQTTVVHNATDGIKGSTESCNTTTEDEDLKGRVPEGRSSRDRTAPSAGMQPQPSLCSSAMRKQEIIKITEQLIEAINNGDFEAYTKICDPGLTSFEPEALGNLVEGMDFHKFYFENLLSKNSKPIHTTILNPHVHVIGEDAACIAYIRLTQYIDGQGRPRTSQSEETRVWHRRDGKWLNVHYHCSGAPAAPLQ
Leukotriene B4 receptor 1 (Homo sapiens), sequence (Q15722 whole entry): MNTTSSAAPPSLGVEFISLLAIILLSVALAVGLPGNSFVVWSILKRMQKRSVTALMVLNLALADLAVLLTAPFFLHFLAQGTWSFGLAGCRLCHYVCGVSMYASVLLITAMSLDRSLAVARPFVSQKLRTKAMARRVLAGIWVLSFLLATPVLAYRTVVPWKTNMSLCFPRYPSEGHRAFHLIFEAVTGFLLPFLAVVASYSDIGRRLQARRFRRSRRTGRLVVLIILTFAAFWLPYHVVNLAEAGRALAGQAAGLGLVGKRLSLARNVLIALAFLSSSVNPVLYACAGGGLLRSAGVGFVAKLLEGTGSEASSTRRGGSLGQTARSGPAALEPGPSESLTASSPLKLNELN
SRSF protein kinase 1, sequence (Q96SB4 whole entry): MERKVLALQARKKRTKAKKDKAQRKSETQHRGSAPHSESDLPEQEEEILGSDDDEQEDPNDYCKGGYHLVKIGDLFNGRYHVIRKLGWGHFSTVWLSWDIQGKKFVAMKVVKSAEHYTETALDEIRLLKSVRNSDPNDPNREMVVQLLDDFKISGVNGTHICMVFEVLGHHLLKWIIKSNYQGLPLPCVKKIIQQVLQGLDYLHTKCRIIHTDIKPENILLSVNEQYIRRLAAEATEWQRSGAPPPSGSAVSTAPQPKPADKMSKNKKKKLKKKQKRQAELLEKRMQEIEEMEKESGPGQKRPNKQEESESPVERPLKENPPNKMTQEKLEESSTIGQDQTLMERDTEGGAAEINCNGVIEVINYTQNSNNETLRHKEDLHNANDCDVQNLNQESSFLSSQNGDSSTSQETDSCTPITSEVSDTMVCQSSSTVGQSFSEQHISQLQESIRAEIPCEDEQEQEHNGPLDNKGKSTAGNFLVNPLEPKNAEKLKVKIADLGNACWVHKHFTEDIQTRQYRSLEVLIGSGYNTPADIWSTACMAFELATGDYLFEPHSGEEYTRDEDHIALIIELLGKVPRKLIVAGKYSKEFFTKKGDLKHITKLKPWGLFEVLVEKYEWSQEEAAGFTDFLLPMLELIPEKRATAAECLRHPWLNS
Mitogen-activated protein kinase 3, sequence (P27361 whole entry): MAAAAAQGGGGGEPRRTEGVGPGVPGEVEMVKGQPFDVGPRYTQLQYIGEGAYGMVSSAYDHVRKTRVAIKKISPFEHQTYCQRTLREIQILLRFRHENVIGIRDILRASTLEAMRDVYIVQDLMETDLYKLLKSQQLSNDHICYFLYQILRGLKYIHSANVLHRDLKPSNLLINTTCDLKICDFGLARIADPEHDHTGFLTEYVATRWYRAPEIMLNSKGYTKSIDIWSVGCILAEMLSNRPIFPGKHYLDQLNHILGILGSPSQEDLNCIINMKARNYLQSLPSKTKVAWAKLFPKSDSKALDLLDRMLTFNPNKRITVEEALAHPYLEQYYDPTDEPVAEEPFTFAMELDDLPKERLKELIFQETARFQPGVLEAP
Phosphatidylinositol 3-kinase catalytic subunit type 3, sequence (Q8NEB9 whole entry): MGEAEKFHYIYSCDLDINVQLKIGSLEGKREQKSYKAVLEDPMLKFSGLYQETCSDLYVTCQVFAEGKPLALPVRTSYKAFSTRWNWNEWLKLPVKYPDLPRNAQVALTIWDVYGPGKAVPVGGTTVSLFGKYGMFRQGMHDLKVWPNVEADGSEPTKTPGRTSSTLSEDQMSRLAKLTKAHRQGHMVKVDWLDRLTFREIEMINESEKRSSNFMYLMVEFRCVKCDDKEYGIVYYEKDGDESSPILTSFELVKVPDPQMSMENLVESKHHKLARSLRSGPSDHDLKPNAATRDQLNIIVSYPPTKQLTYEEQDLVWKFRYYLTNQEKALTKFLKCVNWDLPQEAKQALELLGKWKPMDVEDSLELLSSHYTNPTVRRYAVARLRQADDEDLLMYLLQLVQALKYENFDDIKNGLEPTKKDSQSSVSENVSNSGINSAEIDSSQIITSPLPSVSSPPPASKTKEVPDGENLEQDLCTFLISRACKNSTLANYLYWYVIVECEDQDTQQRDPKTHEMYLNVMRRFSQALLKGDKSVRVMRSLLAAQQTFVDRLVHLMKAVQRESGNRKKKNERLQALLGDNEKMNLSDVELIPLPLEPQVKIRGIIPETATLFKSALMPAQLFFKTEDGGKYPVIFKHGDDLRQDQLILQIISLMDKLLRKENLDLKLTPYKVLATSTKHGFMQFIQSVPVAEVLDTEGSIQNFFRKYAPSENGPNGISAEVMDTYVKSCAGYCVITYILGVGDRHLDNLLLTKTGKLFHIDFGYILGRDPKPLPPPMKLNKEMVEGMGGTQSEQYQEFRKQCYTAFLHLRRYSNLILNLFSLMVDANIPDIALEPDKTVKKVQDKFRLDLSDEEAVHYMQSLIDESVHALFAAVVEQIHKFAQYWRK

## CCC(=O)N1CCN(c2ccc(-n3c(=O)ccc4cnc5ccc(-c6cnc7ccccc7c6)cc5c43)cc2C(F)(F)F)CC1
[1]
  % of control: 79%

## C=CC(=O)Nc1cccc(C(=O)Nc2ccc(Nc3cc(-c4[nH]c(SC)nc4C)ccn3)cc2)c1
[2]; at 1 µM
  % of control: 49%
[2]; at 5 µM
  % of control: 15%
[3]; at 1 µM
  % of control: 97%
[3]; at 5 µM
  % of control: 88%

## Cc1cc([C@@H](C)Nc2ccccc2C(=O)O)c2nc(N3CCOCC3)cc(=O)n2c1 [AZD-6482]
[4]
  % of control: 100%

## Cn1cc(-n2cnc3c(NCc4nc5cc(Cl)c(Cl)cc5[nH]4)nc(N4CCOCC4)nc32)cn1
[5]
  % of control: -1.61%
[6]
  % of inhibition: -28%

## CC[C@@H]1[C@H](F)C(=O)N[C@@H]1COc1nccc2cc(C(N)=O)c(OC)cc12 [ZIMLOVISERTIB]
[7]
  % of inhibition: 3%

## CNC(=O)Nc1ccc(-c2nc(N3CC4CCC(C3)O4)c3cnn(C4CCC5(CC4)OCCO5)c3n2)cc1
[8]
  % of control: 67%
SRSF protein kinase 1
  % of inhibition: 2%

## CC(=O)c1cc(-c2ccccc2OCC2CC2)c2ncccn12
[9]
  % of control: 96%

## CN(C)C/C=C/C(=O)Nc1ccc(C(=O)N2CCCC(Nc3ncc(Cl)c(-c4c[nH]c5ccccc45)n3)C2)cc1 (stereo not drawn)
[10]
  % of control: 93%
